Settings: Liquid, Vibrating tube method

CCCCCCCCCCCC [dodecane]
mass density [kg/m3]
Settings	293 K	313 K	333 K	353 K	373 K	393 K	413 K	433 K	448 K	468 K
2100 kPa	752.3	737.7	722.8	708.1	693.2	678.1	662.8	646.8	634.6	617.8
3100 kPa	752.9	738.5	723.6	709	694.3	679.2	664.2	648.5	636.7	619.9
4100 kPa	753.6	739.2	724.5	710	695.3	680.4	665.6	650	638.2	622
5000 kPa	754.2	739.9	725.3	710.9	696.3	681.6	666.9	651.6	640	624.1
10100 kPa	757.5	743.4	729.4	715.6	701.5	687.5	673.7	659.5	648.5	634.1
20000 kPa	763.5	750.1	736.6	723.9	710.8	697.8	685.1	672	662.4	649.5
30000 kPa	769	756.3	743.4	731.3	718.7	706.6	694.9	682.8	674	661.8
40000 kPa	774.3	761.8	749.6	737.7	726	714.7	703.6	692.1	684	672.8
50000 kPa	779	767.1	755.3	744.1	733.1	722.2	711.4	700.6	692.9	682.6
60000 kPa	783.8	772.1	760.8	750.1	739.4	728.7	718.7	708.3	701	691
69900 kPa	788	777	766	755.6	745.2	735.1	725.4	715.6	708.3	698.9
79900 kPa	792.5	781.6	770.9	760.7	750.7	741.1	731.7	722.1	715.3	706.3
89900 kPa	796.7	786.1	775.7	765.7	756	746.8	737.3	728.3	721.9	712.9
99900 kPa	800.8	790.4	780.1	770.5	761	752.2	743.2	734.3	727.9	719.2
109900 kPa	804.8	794.6	784.6	775.1	765.9	757.2	748.5	739.8	733.5	725.1
119900 kPa	808.7	798.7	788.8	779.6	770.6	762	753.7	745.1	739	731
129900 kPa	812.4	802.7	793.2	784	775.1	766.8	758.5	750.3	744.2	736.3
134900 kPa	814.4	804.6	795.1	786	777.4	769	760.9	752.7	746.7	738.9
137400 kPa	815.2	805.4	796	787	778.5	770.2	762	753.9	747.9	740.2

From the NIST ThermoML archive (doi:10.1016/j.fluid.2016.09.021)
